# From article PMC9556824, “Design, synthesis and computational study of new benzofuran hybrids as dual PI3K/VEGFR2 inhibitors targeting cancer” (Scientific Reports, 2022)
# Where two headings read alike, the source gives them in different places.
# Experiments:
# [1] = system: Hepatocellular carcinoma (HePG2); experiment: Antitumor screening using MTT assay; format: cell-based, human; details: for IC50: mean ± SD, n = 3, read-out: In-vitro cytotoxicity IC50 (µM) HePG2; for viability at 1.56 µM / viability at 3.125 µM / viability at 6.25 µM / viability at 12.5 µM / viability at 25 µM / viability at 50 µM / viability at 100 µM: read-out: Average of Relative viability of cells (%)
# [2] = system: human lung fibroblast (WI38); experiment: In vitro cytotoxicity against human normal cell line (MTT); format: cell-based; details: for Average of Relative viability of cells (%): WI38; for IC50: mean ± SD, n = 3
# Description: (§1) The anticancer agent's selectivity for cancer cells is a critical consideration for any researcher, as it can decrease the molecule's adverse effects on normal human cells.
# [3] = system: HePG2, MCF-7, Hela, PC3 cell lines; experiment: Antitumor screening using MTT assay, statements across several cell lines; format: cell-based, human; details: HePG2, MCF-7, Hela, PC3
# Description: (§2) Hepatocellular carcinoma (HePG2), mammary gland breast cancer (MCF-7), epithelioid carcinoma cervix cancer (Hela), and human prostate cancer were included on the panel (PC3). […] The cell lines were obtained from the American Type Culture Collection (ATCC) through VACSERA, a Cairo-based holding firm for biological goods and vaccines.
# (§3) The panel consisted of hepatocellular carcinoma (HePG2), mammary gland breast cancer (MCF-7), epithelioid carcinoma cervix cancer (Hela) and human prostate cancer (PC3). Human lung fibroblast (WI38) was used to assay the cytotoxicity effect on normal cell. The cell lines were obtained from ATCC via Holding company for biological products and vaccines (VACSERA), Cairo, Egypt. The cytotoxic activity was defined as the concentration of the compound that causes 50% growth inhibition compared with the growth of untreated cells.
# [4] = system: mammary gland breast cancer (MCF-7); experiment: Antitumor screening using MTT assay; details: for Average of Relative viability of cells (%): MCF7; for viability at 1.56 µM / viability at 3.125 µM / viability at 6.25 µM / viability at 12.5 µM / viability at 25 µM / viability at 50 µM / viability at 100 µM: MCF7, read-out: Average of Relative viability of cells (%)
# Description: as §2, §3
# [5] = system: epithelioid carcinoma cervix cancer (Hela); experiment: Antitumor screening using MTT assay; details: for IC50: read-out: In-vitro cytotoxicity IC50 (µM) Hela; for viability at 1.56 µM / viability at 3.125 µM / viability at 6.25 µM / viability at 12.5 µM / viability at 25 µM / viability at 50 µM / viability at 100 µM: read-out: Average of Relative viability of cells (%)
# [6] = system: human prostate cancer (PC3); experiment: Antitumor screening using MTT assay; details: for IC50: read-out: In-vitro cytotoxicity IC50 (µM) PC3; for viability at 1.56 µM / viability at 3.125 µM / viability at 6.25 µM / viability at 12.5 µM / viability at 25 µM / viability at 50 µM / viability at 100 µM: read-out: Average of Relative viability of cells (%)
# Description: as §2, §3
# [7] = In vitro cytotoxicity against human normal cell line (MTT); format: cell-based; details: human, WI38 human lung fibroblast cells (normal cell line), WI38, read-out: Average of Relative viability of cells (%); for viability at 1.56 µM: Conc. 1.56 µM; for viability at 3.125 µM: Conc. 3.125 µM; for viability at 6.25 µM: Conc. 6.25 µM; for viability at 12.5 µM: Conc. 12.5 µM; for viability at 25 µM: Conc. 25 µM; for viability at 50 µM: Conc. 50 µM; for viability at 100 µM: Conc. 100 µM
# Description: as §1
# human PI3Kα = human PI3Kα (Homo sapiens, UniProt P42336); experiment: Human PI3Kα enzyme inhibition assay (ELISA)
# Description: PI3Kα and VEGFR-2 activity were verified by enzyme-linked immunosorbent assay (ELISA) assay technique. […] Then, the mean absorbance of each group of standard and tested compounds was determined. The standard curve was drawn on log–log paper with the absorbance on the Y-axis and the standard concentration on the X-axis.
# [8] = Homo sapiens, WI-38, human normal cell line WI38
# [9] = Homo sapiens, MCF7, read-out: In-vitro cytotoxicity IC50 (µM) MCF-7
# Chain of human PI3Kα (P42336 whole entry): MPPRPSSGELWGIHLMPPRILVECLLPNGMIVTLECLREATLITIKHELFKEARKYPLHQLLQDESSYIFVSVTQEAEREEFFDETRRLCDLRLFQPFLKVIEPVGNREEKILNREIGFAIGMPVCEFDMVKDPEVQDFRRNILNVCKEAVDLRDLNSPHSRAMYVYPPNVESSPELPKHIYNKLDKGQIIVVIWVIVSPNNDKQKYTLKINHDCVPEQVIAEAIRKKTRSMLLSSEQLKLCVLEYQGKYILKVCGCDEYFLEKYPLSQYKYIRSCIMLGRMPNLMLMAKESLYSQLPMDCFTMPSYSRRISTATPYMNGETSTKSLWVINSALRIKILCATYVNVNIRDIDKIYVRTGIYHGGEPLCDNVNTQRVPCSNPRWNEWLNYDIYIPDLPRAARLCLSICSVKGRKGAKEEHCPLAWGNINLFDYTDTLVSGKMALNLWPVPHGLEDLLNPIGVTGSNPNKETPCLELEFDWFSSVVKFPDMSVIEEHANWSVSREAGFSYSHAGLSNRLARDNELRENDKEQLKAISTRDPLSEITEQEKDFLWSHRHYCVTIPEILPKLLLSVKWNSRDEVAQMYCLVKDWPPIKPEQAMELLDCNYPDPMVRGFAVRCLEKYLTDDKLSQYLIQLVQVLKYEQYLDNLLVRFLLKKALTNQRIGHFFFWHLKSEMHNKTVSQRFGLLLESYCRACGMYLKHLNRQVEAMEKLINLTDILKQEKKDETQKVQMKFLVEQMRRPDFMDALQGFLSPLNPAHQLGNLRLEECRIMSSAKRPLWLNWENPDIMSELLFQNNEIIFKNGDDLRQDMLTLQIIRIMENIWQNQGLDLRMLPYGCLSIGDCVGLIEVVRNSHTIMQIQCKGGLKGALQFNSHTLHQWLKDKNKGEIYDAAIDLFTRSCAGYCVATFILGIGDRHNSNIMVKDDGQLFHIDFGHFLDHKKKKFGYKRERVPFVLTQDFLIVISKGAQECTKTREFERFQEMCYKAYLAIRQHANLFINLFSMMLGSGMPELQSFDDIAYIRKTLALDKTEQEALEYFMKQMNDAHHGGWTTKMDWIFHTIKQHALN
# Chain of human PI3Kα (P27986 whole entry partner): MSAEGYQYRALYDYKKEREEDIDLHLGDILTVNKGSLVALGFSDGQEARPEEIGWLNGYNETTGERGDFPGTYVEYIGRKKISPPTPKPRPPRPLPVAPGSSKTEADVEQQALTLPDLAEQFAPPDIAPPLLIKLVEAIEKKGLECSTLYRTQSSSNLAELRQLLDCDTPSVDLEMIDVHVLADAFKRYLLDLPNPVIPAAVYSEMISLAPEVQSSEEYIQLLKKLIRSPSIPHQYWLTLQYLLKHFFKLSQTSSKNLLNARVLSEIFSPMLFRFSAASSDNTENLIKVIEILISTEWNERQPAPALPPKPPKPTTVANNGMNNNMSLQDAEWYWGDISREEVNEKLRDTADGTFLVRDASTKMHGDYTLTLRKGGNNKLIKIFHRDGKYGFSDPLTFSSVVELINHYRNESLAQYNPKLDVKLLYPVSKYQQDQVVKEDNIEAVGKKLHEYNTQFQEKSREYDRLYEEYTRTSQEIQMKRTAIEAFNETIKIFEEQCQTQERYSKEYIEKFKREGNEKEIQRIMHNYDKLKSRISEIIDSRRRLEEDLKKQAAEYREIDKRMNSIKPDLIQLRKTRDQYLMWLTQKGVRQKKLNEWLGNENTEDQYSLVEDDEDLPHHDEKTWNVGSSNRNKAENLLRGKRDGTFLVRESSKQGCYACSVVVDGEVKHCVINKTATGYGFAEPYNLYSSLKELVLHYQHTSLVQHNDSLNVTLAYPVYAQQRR
compound,measurement,setting,value
2-(benzofuran-2-yl)-1-(4-methylpiperazin-1-yl)ethanethione [Compound 3],Average of Relative viability of cells (%),[1]; Conc. 1.56 µM,100%
same,Average of Relative viability of cells (%),[1]; Conc. 3.125 µM,100%
same,Average of Relative viability of cells (%),[1]; Conc. 6.25 µM,82.4%
same,Average of Relative viability of cells (%),[1]; Conc. 12.5 µM,76.1%
same,Average of Relative viability of cells (%),[1]; Conc. 25 µM,50.2%
same,Average of Relative viability of cells (%),[1]; Conc. 50 µM,42.8%
same,Average of Relative viability of cells (%),[1]; Conc. 100 µM,29.5%
same,IC50,[1],34.8 ± 2.5 µM
same,Average of Relative viability of cells (%),[2]; Conc. 1.56 µM,100%
same,Average of Relative viability of cells (%),[2]; Conc. 3.125 µM,100%
same,Average of Relative viability of cells (%),[2]; Conc. 6.25 µM,97.0%
same,Average of Relative viability of cells (%),[2]; Conc. 12.5 µM,85.3%
same,Average of Relative viability of cells (%),[2]; Conc. 25 µM,71.8%
same,Average of Relative viability of cells (%),[2]; Conc. 50 µM,59.2%
same,Average of Relative viability of cells (%),[2]; Conc. 100 µM,47.4%
same,IC50,[2]; human normal cell line WI38,78.5 ± 3.8 µM
same,anticancer activity towards the four / all assessed cell lines (grade),[3],weak (51–100 (weak))
same,Average of Relative viability of cells (%),[4]; Conc. 1.56 µM,100%
same,Average of Relative viability of cells (%),[4]; Conc. 3.125 µM,100%
same,Average of Relative viability of cells (%),[4]; Conc. 6.25 µM,94.7%
same,Average of Relative viability of cells (%),[4]; Conc. 12.5 µM,72.4%
same,Average of Relative viability of cells (%),[4]; Conc. 25 µM,61.3%
same,Average of Relative viability of cells (%),[4]; Conc. 50 µM,47.6%
same,Average of Relative viability of cells (%),[4]; Conc. 100 µM,33.9%
same,IC50,"[4]; read-out: In-vitro cytotoxicity IC50 (µM) MCF-7, MCF-7, mean ± SD, n = 3",45.1 ± 2.9 µM
same,Average of Relative viability of cells (%),"[5]; Hela, Conc. 1.56 µM",100%
same,Average of Relative viability of cells (%),"[5]; Hela, Conc. 3.125 µM",100%
same,Average of Relative viability of cells (%),"[5]; Hela, Conc. 6.25 µM",97.1%
same,Average of Relative viability of cells (%),"[5]; Hela, Conc. 12.5 µM",75.9%
same,Average of Relative viability of cells (%),"[5]; Hela, Conc. 25 µM",64.8%
same,Average of Relative viability of cells (%),"[5]; Hela, Conc. 50 µM",50.7%
same,Average of Relative viability of cells (%),"[5]; Hela, Conc. 100 µM",36.1%
same,IC50,"[5]; Hela, mean ± SD, n = 3",51.4 ± 3.1 µM
same,Average of Relative viability of cells (%),"[6]; PC3, Conc. 1.56 µM",100%
same,Average of Relative viability of cells (%),"[6]; PC3, Conc. 3.125 µM",100%
same,Average of Relative viability of cells (%),"[6]; PC3, Conc. 6.25 µM",100%
same,Average of Relative viability of cells (%),"[6]; PC3, Conc. 12.5 µM",92.8%
same,Average of Relative viability of cells (%),"[6]; PC3, Conc. 25 µM",71.9%
same,Average of Relative viability of cells (%),"[6]; PC3, Conc. 50 µM",59.5%
same,Average of Relative viability of cells (%),"[6]; PC3, Conc. 100 µM",37.5%
same,IC50,"[6]; PC3, mean ± SD, n = 3",65 ± 3.2 µM
"O=C(/C=C/N1CCCCC1)c1cc2ccccc2o1 [Compound 5, (E)-1-(benzofuran-2-yl)-3-(piperidin-1-yl)prop-2-en-1-one]",viability at 1.56 µM,"[1]; Homo sapiens, Conc. 1.56 µM",100%
same,viability at 3.125 µM,"[1]; Homo sapiens, Conc. 3.125 µM",76.8%
same,viability at 6.25 µM,"[1]; Homo sapiens, Conc. 6.25 µM",65%
same,viability at 12.5 µM,"[1]; Homo sapiens, Conc. 12.5 µM",42.3%
same,viability at 25 µM,"[1]; Homo sapiens, Conc. 25 µM",37.2%
same,viability at 50 µM,"[1]; Homo sapiens, Conc. 50 µM",24%
same,viability at 100 µM,"[1]; Homo sapiens, Conc. 100 µM",15.3%
same,IC50,[1]; Homo sapiens,12.6 ± 1 µM
same,viability at 1.56 µM,[7],100%
same,viability at 3.125 µM,[7],100%
same,viability at 6.25 µM,[7],100%
same,viability at 12.5 µM,[7],91.8%
same,viability at 25 µM,[7],72.3%
same,viability at 50 µM,[7],57.1%
same,viability at 100 µM,[7],38.2%
same,IC50,[2]; [8],64 ± 3.1 µM
same,melting point,,136 to 138 °C
same,viability at 1.56 µM,[4]; Homo sapiens,100%
same,viability at 3.125 µM,[4]; Homo sapiens,96.2%
same,viability at 6.25 µM,[4]; Homo sapiens,72.1%
same,viability at 12.5 µM,[4]; Homo sapiens,54.9%
same,viability at 25 µM,[4]; Homo sapiens,41.8%
same,viability at 50 µM,[4]; Homo sapiens,32.5%
same,viability at 100 µM,[4]; Homo sapiens,20.4%
same,IC50,[4]; [9],19.9 ± 1.5 µM
same,viability at 1.56 µM,"[5]; Homo sapiens, HeLa",100%
same,viability at 3.125 µM,"[5]; Homo sapiens, HeLa",96.6%
same,viability at 6.25 µM,"[5]; Homo sapiens, HeLa",79.3%
same,viability at 12.5 µM,"[5]; Homo sapiens, HeLa",62.9%
same,viability at 25 µM,"[5]; Homo sapiens, HeLa",51.4%
same,viability at 50 µM,"[5]; Homo sapiens, HeLa",38.1%
same,viability at 100 µM,"[5]; Homo sapiens, HeLa",26.3%
same,IC50,"[5]; Homo sapiens, HeLa",28.3 ± 2.2 µM
same,viability at 1.56 µM,[6]; Homo sapiens,100%
same,viability at 3.125 µM,[6]; Homo sapiens,100%
same,viability at 6.25 µM,[6]; Homo sapiens,92.7%
same,viability at 12.5 µM,[6]; Homo sapiens,67.2%
same,viability at 25 µM,[6]; Homo sapiens,58.1%
same,viability at 50 µM,[6]; Homo sapiens,47.8%
same,viability at 100 µM,[6]; Homo sapiens,32.9%
same,IC50,[6]; Homo sapiens,41.5 ± 2.6 µM
"C/C(=N\N=C\c1ccc(O)cc1)c1cc2ccccc2o1 [Compound 11, (E)-1-[1-(benzofuran-2-yl)ethylidene]-2-((E)-4-hydroxybenzylidene)hydrazine]",IC50,[1]; Homo sapiens,84.9 ± 3.2 µM
same,IC50,[2]; [8],43.2 ± 2.9 µM
same,melting point,,154 to 156 °C
same,IC50,[4]; [9],> 100 µM
same,IC50,"[5]; Homo sapiens, HeLa",89.3 ± 3.2 µM
same,IC50,[6]; Homo sapiens,> 100 µM
"O=c1cc(N2CCOCC2)oc2c(-c3ccccc3)cccc12 [LY294002, reference compound]",PI3K-α %inh,human PI3Kα; conc 0.1 (unit not given),8.66%
same,PI3K-α %inh,human PI3Kα; conc 1 (unit not given),21.2%
same,PI3K-α %inh,human PI3Kα; conc 10 (unit not given),54.8%
same,PI3K-α %inh,human PI3Kα; conc 100 (unit not given),76.7%
C\C(=N/N=C/C=C/c1ccccc1)c1cc2ccccc2o1 [Compound 12],viability at 1.56 µM,"[1]; Homo sapiens, Conc. 1.56 µM",100%
same,viability at 3.125 µM,"[1]; Homo sapiens, Conc. 3.125 µM",100%
same,viability at 6.25 µM,"[1]; Homo sapiens, Conc. 6.25 µM",100%
same,viability at 12.5 µM,"[1]; Homo sapiens, Conc. 12.5 µM",91.3%
same,viability at 25 µM,"[1]; Homo sapiens, Conc. 25 µM",70.5%
same,viability at 50 µM,"[1]; Homo sapiens, Conc. 50 µM",54%
same,viability at 100 µM,"[1]; Homo sapiens, Conc. 100 µM",39.4%
same,IC50,[1]; Homo sapiens,62 ± 3.2 µM
same,viability at 1.56 µM,[7],100%
same,viability at 3.125 µM,[7],100%
same,viability at 6.25 µM,[7],91.3%
same,viability at 12.5 µM,[7],78.1%
same,viability at 25 µM,[7],61.9%
same,viability at 50 µM,[7],52.5%
same,viability at 100 µM,[7],41%
same,IC50,[2]; [8],56.5 ± 3.2 µM
same,melting point,,141 to 143 °C
same,viability at 1.56 µM,[4]; Homo sapiens,100%
same,viability at 3.125 µM,[4]; Homo sapiens,100%
same,viability at 6.25 µM,[4]; Homo sapiens,94.7%
same,viability at 12.5 µM,[4]; Homo sapiens,81.8%
same,viability at 25 µM,[4]; Homo sapiens,70.2%
same,viability at 50 µM,[4]; Homo sapiens,57.1%
same,viability at 100 µM,[4]; Homo sapiens,43.2%
same,IC50,[4]; [9],68.4 ± 3.6 µM
same,viability at 1.56 µM,"[5]; Homo sapiens, HeLa",100%
same,viability at 3.125 µM,"[5]; Homo sapiens, HeLa",100%
same,viability at 6.25 µM,"[5]; Homo sapiens, HeLa",86.6%
same,viability at 12.5 µM,"[5]; Homo sapiens, HeLa",72.3%
same,viability at 25 µM,"[5]; Homo sapiens, HeLa",59.2%
same,viability at 50 µM,"[5]; Homo sapiens, HeLa",41.8%
same,viability at 100 µM,"[5]; Homo sapiens, HeLa",34.1%
same,IC50,"[5]; Homo sapiens, HeLa",39.8 ± 2.7 µM
same,viability at 1.56 µM,[6]; Homo sapiens,100%
same,viability at 3.125 µM,[6]; Homo sapiens,100%
same,viability at 6.25 µM,[6]; Homo sapiens,98.4%
same,viability at 12.5 µM,[6]; Homo sapiens,86.6%
same,viability at 25 µM,[6]; Homo sapiens,71.7%
same,viability at 50 µM,[6]; Homo sapiens,55%
same,viability at 100 µM,[6]; Homo sapiens,47.3%
same,IC50,[6]; Homo sapiens,74.4 ± 3.9 µM
